Assay results from US20260232767A1, “INTERLEUKIN-23 RECEPTOR ANTAGONIST PEPTIDES FOR USE IN THE TREATMENT OF PSORIASIS” (Janssen Pharmaceutica NV, priority 2023, published 2026).

Tests used:
[1] = test system: subjects with moderate-to-severe plaque psoriasis; assay: BSA, Example 1; type: in vivo, human; conditions: each dose group vs placebo; Week 16
From the text: Subjects suitable for the method of the present invention satisfy one or more criteria for inclusion, as described below. In some embodiments, the present invention relates to the method and/or use, where the subject has a psoriasis effected Body Surface Area (BSA) of at least 10% before the start of treatment. Herein the term BSA will mean the measure of the percentage of total area of your body affected by psoriasis.
Clinician-reported outcomes including Psoriasis Area and Severity Index (PASI), Body Surface Area (BSA), Investigator's Global Assessment (IGA), Nail Psoriasis Area and Severity Index (NAPSI), Fingernail Physician's Global Assessment (f-PGA), Static Physician's Global Assessment of Genitalia (s-PGA-G), Physician's Global Assessment of Hands and/or Feet (hf-PGA), and Scalp Specific Investigator Global Assessment (ss-IGA) were obtained at Week 0, 8, and 16. PASI and IGA were also obtained at Weeks 1, 2, 4, and 12, and at Week 20, four weeks after the administration of the tablets has stopped.

[2] = test system: subjects with moderate-to-severe plaque psoriasis; assay: DLQI, Example 1; type: in vivo, human; conditions: each dose group vs placebo; Week 16
From the text: The Dermatological Life Quality Index (DLQI) is a dermatology-specific health-related quality of life (HRQoL) instrument designed to assess the impact of the disease on a participant's HRQoL. It is a 10-item questionnaire that assesses HRQoL over the past week and in addition to evaluating overall HRQoL, can be used to assess 6 different aspects that may affect quality of life: symptoms and feelings, daily activities, leisure, work or school performance, personal relationships, and treatment. The total score ranges from 0 to 30 with a higher score indicating greater impact on quality of life (QoL).
Efficacy, PK, immunogenicity, biomarker, pharmacogenomic, and safety criteria were measured during the treatment. Subjects were provided with an electronic device to enter patient-reported outcome (PRO) data at each study visit. All visit-specific PRO assessments were conducted/completed before any tests, procedures or other clinical assessments, with the exception of the urine pregnancy test and urinalysis, to prevent influencing subject perceptions.

SMILES: CC(=O)NCCCC[C@@H]1NC(=O)[C@H](Cc2c[nH]c3c(C)cccc23)NC(=O)[C@H]([C@@H](C)O)NC(=O)[C@H](CC(N)=O)NC(=O)[C@@H](NC(C)=O)C(C)(C)SSC(C)(C)[C@@H](C(=O)N[C@@H](Cc2ccc(OCCN)cc2)C(=O)N[C@@H](Cc2ccc3ccccc3c2)C(=O)NC2(C(=O)N[C@@H](CCC(=O)O)C(=O)N[C@@H](CC(N)=O)C(=O)N[C@@H](Cc3cccnc3)C(=O)N(C)CC(N)=O)CCOCC2)NC1=O [IL-23 receptor antagonist peptide, Ac-[Pen]*-N-T-[W(7-Me)]-[Lys(Ac)]-[Pen]*-Phe[4-(2-aminoethoxy)]-[2-Nal]-[THP]-E-N-[3-Pal]-Sarc-NH2 (*[Pen]-[Pen]* formdisulfidebond)]
- Improvement (reduction) in BSA from baseline [1]: significantly greater improvement
- Proportion achieving DLQI score of 0 or 1 [2]: significantly higher
